{"source": "patent US10858393B2", "about": "“Crystal of reduced glutathione and method for producing same” (KYOWA HAKKO BIO CO., LTD., priority 2016, dated 2020)", "key": {"[1]": {"conditions": "100 g/L in water, hermetically sealed, 25° C. or 40° C., FIG. 1", "protocol": "The vertical axis represents the peak area of L-cysteinyl-L-glycine with respect to the peak area of reduced glutathione which is taken as 100 in an HPLC analysis of the aqueous solution. […] In FIG. 1, the white circles indicate the results at 40° C., and the black lozenges indicate the results at 25° C.\nAn α-type crystal of reduced glutathione (manufactured by Kojin Co., Ltd.) was dissolved in water, and thereafter, the solution was adjusted to 100 g/L and hermetically sealed and placed in a thermostat bath at 25° C. or 40° C. while stirring. These reduced glutathione aqueous solutions were sampled over time and subjected to an HPLC analysis."}, "[2]": {"conditions": "cited from earlier work"}}, "note": "Read-outs that look alike come from different tables or passages of the source.", "data": [{"smiles": "N[C@@H](CCC(=O)N[C@@H](CS)C(=O)NCC(=O)O)C(=O)O", "note": "[reduced glutathione, γ-L-glutamyl-L-cysteinyl-L-glycine]", "values": [{"measurement": "stability in aqueous solution (formation of L-cysteinyl-L-glycine over time, HPLC)", "setting": "[1]", "result": "decomposed over time in a temperature-dependent manner to produce L-cysteinyl-L-glycine"}, {"measurement": "saturation solubility in water", "setting": "[2]; 10° C.", "result": 83, "unit": "mg/mL"}, {"measurement": "saturation solubility in water", "setting": "[2]; 25° C.", "result": 130, "unit": "mg/mL"}]}]}
